The source made the active and inactive calls. The calls are words filed in the database; no cut-off is given here.
How the values were obtained:
[1] = target: MAO-A (amine oxidase [flavin-containing] A) (Rattus norvegicus, UniProt P21396); assay: MAO-A_ANTAG Cerep selectivity data (BI); set-up: mode of action antagonist; scale not given: the % may be the effect or the level left; details: compound concentration 10 uM, read-out: % Ctrl
[2] = target: Cannabinoid receptor 2 (Homo sapiens) (UniProt P34972); assay: CB2/PERIPH/H Cerep selectivity data (BI); details: Compound concentration 10.0 uM
[3] = target: Kappa-type opioid receptor (Rattus norvegicus) (UniProt P34975); assay: KAPPA/R Cerep selectivity data (BI); details: Compound concentration 10.0 uM
[4] = target: Gamma-aminobutyric acid receptor subunit alpha-1 (Rattus norvegicus) (UniProt P62813); assay: BZD/CENTR/R Cerep selectivity data (BI); details: Compound concentration 10.0 uM
[5] = target: Sodium-dependent serotonin transporter (Homo sapiens) (UniProt P31645); assay: SLC6A4/H Cerep selectivity data (BI); details: filed as antagonist, Compound concentration 10.0 uM
[6] = target: L-type voltage-gated calcium channel (dihydropyridine site), Cav1.2 alpha-1C (Rattus norvegicus, UniProt P22002); assay: CA+/DHPSI/R Cerep selectivity data (BI); set-up: mode of action inhibitor; details: rat brain, probe [3H](+)PN200-110, compound concentration 10 uM, read-out: % Ctrl
[7] = target: Muscarinic acetylcholine receptor M1 (Homo sapiens) (UniProt P11229); details: Compound concentration 10.0 uM
Chain of Muscarinic acetylcholine receptor M1 (Homo sapiens) (P11229 whole entry): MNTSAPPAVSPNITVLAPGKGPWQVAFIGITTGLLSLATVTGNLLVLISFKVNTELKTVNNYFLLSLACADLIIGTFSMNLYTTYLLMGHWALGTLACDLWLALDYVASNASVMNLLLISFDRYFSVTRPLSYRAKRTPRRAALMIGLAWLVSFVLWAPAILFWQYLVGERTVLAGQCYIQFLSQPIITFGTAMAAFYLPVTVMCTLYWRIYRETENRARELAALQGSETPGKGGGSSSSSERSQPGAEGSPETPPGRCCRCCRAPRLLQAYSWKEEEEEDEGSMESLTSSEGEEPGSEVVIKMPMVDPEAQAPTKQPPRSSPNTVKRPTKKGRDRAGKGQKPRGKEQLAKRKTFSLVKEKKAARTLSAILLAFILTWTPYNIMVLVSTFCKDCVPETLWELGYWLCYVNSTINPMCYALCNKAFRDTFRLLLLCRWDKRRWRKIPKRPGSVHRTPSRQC

[8] = target: Cannabinoid receptor 1 (Homo sapiens) (UniProt P21554); assay: CB1/CENTR/H Cerep selectivity data (BI); details: Compound concentration 10.0 uM
[9] = target: 5-hydroxytryptamine receptor 2A (Homo sapiens, UniProt P28223); assay: GPCRScan assay: inhibition of 5-HT2A; set-up: radioligand conc. used [nm] 1.2 – 2.4, parental cells HEKT
Chain of 5-hydroxytryptamine receptor 2A (P28223 whole entry): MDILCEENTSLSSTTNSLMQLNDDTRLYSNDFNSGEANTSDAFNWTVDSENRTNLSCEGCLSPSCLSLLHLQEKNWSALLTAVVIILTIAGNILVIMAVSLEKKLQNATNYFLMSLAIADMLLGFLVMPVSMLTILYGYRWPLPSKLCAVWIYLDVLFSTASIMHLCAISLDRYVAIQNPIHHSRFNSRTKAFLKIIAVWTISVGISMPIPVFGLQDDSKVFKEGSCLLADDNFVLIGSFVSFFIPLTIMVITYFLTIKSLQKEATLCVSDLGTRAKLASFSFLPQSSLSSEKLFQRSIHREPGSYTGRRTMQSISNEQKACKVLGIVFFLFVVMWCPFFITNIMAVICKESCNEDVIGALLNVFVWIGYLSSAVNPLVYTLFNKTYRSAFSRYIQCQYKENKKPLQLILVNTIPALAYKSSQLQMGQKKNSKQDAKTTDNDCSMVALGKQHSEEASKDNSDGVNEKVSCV

[10] = target: cGMP-inhibited 3',5'-cyclic phosphodiesterase 3A (Homo sapiens) (UniProt Q14432); assay: PDE3A Cerep selectivity data (BI); details: Compound concentration 10.0 uM
Chain of cGMP-inhibited 3',5'-cyclic phosphodiesterase 3A (Homo sapiens) (Q14432 whole entry): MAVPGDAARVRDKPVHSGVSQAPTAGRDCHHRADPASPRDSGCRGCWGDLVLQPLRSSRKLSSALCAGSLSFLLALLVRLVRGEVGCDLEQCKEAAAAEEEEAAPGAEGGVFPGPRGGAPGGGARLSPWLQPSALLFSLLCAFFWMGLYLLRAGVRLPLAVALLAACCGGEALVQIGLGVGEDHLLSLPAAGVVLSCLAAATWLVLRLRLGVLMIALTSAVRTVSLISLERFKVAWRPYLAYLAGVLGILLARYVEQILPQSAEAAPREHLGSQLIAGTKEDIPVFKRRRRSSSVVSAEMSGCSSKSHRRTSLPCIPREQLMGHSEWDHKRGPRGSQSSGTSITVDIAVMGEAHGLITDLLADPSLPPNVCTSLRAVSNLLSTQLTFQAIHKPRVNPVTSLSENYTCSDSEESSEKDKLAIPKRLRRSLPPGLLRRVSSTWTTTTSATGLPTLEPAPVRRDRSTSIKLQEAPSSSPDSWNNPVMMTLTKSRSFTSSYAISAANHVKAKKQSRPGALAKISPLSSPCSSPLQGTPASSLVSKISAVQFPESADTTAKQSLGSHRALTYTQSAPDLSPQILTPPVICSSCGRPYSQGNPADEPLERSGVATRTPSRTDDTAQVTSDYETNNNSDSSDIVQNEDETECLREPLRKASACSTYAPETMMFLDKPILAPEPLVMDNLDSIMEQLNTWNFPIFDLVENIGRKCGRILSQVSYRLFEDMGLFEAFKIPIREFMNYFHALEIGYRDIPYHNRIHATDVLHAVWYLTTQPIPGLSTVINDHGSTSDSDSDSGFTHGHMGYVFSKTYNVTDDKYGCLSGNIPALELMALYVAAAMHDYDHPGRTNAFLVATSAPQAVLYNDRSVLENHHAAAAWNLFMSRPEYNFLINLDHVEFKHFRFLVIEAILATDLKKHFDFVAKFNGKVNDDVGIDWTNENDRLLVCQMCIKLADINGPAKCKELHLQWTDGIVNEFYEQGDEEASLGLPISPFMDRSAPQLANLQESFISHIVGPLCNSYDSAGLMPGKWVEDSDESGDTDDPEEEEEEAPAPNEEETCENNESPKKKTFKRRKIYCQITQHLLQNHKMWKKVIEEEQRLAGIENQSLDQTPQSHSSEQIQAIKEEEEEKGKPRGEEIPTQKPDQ

[11] = target: Androgen receptor (Homo sapiens) (UniProt P10275); assay: ANDROGEN/H Cerep selectivity data (BI); details: Compound concentration 10.0 uM
Chain of Androgen receptor (Homo sapiens) (P10275 whole entry): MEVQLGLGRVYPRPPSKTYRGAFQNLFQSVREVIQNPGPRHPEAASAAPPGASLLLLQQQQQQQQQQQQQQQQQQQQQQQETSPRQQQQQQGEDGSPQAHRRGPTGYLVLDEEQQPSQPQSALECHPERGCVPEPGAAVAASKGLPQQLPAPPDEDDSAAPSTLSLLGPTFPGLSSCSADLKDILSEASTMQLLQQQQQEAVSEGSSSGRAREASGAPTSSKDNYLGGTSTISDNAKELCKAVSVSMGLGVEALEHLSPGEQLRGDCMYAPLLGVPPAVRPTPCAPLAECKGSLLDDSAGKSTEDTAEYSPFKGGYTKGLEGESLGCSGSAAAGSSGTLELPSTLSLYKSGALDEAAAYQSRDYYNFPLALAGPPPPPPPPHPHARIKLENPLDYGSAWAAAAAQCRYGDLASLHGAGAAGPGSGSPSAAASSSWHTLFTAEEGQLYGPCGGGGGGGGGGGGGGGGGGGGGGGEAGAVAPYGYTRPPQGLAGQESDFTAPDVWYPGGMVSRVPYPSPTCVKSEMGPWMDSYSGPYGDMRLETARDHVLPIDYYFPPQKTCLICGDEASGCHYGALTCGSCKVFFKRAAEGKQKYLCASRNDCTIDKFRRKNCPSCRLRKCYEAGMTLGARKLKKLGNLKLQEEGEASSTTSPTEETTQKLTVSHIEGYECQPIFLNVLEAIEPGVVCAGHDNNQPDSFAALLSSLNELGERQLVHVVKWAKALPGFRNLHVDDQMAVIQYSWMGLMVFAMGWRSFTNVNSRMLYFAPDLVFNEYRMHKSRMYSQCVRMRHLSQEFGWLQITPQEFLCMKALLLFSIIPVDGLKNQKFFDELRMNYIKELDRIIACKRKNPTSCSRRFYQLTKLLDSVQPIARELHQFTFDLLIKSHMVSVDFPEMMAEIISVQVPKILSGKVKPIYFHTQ

[12] = target: Delta-type opioid receptor (Homo sapiens) (UniProt P41143); assay: DELTA2/H Cerep selectivity data (BI); details: Compound concentration 10.0 uM
[13] = target: Histamine H1 receptor (Homo sapiens) (UniProt P35367); assay: H1/PYRIL/HS Cerep selectivity data (BI); details: Compound concentration 10.0 uM
Chain of Histamine H1 receptor (Homo sapiens) (P35367 whole entry): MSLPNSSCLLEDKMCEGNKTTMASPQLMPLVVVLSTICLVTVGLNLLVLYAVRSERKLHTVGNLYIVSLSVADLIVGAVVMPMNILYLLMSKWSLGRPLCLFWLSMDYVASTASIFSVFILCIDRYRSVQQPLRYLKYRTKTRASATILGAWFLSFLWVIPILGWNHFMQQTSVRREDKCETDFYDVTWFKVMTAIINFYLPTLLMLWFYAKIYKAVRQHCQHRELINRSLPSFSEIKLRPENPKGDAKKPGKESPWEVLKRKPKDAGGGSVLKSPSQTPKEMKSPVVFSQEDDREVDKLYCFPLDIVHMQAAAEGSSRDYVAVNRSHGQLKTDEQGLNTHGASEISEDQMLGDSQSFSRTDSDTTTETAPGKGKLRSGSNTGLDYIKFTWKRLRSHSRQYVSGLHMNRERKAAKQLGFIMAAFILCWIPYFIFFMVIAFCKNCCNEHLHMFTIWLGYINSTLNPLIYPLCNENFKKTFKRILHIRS

[14] = target: Prostaglandin G/H synthase 1 (Homo sapiens) (UniProt P23219); assay: COX-1 Cerep selectivity data (BI); details: Compound concentration 10.0 uM
Chain of Prostaglandin G/H synthase 1 (Homo sapiens) (P23219 whole entry): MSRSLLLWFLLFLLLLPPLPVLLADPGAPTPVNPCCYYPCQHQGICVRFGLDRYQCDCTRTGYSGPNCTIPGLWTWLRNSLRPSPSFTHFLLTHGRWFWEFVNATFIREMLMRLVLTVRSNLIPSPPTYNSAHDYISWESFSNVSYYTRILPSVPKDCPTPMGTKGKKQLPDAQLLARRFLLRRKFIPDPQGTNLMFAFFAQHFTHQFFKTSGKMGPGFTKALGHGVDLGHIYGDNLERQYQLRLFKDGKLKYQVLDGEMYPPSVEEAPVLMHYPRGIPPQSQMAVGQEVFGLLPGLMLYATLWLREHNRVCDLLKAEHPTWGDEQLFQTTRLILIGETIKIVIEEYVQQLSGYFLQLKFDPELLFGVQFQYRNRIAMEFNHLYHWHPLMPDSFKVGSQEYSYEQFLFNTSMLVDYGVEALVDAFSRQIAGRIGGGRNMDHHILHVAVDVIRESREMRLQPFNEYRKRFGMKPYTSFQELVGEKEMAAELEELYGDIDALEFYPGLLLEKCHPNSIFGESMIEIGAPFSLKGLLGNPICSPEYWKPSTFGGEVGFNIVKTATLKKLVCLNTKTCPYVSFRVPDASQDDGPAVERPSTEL

[15] = target: Cholecystokinin receptor type A (Homo sapiens) (UniProt P32238); assay: CCKA/H Cerep selectivity data (BI); details: Compound concentration 10.0 uM
[16] = target: 5-hydroxytryptamine receptor 1B (Rattus norvegicus) (UniProt P28564); assay: 5HT1B/R Cerep selectivity data (BI); details: Compound concentration 10.0 uM
[17] = target: T1, Muscarinic acetylcholine receptor M2 (Homo sapiens) (UniProt P08172); assay: M2/H Cerep selectivity data (BI); details: filed as antagonist, Compound concentration 10.0 uM
T1 sequence (whole entry): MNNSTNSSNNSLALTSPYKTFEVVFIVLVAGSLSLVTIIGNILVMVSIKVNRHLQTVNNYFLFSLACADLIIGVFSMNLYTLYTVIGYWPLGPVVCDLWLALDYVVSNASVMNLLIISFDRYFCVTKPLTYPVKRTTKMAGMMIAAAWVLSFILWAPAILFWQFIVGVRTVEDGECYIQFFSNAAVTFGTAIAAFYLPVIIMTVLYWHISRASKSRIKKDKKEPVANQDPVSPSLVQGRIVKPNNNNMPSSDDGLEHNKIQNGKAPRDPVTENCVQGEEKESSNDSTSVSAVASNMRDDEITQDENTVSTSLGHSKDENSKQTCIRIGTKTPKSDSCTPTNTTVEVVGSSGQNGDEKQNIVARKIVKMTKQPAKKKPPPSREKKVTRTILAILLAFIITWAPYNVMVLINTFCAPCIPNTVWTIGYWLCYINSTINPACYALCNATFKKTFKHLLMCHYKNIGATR

[18] = target: Adenosine receptor A2a (Homo sapiens) (UniProt P29274); assay: A2A/H Cerep selectivity data (BI); details: filed as antagonist, Compound concentration 10.0 uM
Chain of Adenosine receptor A2a (Homo sapiens) (P29274 whole entry): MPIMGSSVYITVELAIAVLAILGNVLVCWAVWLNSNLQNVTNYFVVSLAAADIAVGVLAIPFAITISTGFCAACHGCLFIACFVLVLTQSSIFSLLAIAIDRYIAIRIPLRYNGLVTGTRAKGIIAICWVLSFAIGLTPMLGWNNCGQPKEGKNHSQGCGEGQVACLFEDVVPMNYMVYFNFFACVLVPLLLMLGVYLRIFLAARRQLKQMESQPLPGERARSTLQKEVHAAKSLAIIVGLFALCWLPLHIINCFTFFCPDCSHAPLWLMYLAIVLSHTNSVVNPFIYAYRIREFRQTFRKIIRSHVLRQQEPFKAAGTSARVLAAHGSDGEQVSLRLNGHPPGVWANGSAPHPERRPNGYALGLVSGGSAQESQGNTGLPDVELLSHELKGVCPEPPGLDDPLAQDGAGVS

[19] = target: Sodium-dependent noradrenaline transporter (Homo sapiens) (UniProt P23975); assay: NEUP/H Cerep selectivity data (BI); details: Compound concentration 10.0 uM
[20] = target: D(2) dopamine receptor (Homo sapiens) (UniProt P14416); assay: D2SH_AGON Cerep selectivity data (BI); details: filed as agonist, Compound concentration 10.0 uM
Chain of D(2) dopamine receptor (Homo sapiens) (P14416 whole entry): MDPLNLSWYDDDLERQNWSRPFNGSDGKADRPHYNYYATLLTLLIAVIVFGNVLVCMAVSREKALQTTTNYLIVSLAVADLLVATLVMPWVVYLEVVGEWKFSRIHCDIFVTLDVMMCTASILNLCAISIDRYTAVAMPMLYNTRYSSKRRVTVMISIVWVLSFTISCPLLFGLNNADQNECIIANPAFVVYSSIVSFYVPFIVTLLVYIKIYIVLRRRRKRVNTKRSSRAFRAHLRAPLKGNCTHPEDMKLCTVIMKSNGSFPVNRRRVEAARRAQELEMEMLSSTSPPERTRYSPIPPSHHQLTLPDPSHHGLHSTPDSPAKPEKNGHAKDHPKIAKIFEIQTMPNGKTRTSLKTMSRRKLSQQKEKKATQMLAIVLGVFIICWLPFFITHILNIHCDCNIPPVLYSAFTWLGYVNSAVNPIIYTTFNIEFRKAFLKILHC

[21] = target: T2, 5-hydroxytryptamine receptor 1A (Homo sapiens) (UniProt P08908); assay: 5HT1A/H Cerep selectivity data (BI); details: Compound concentration 10.0 uM
T2 sequence (whole entry): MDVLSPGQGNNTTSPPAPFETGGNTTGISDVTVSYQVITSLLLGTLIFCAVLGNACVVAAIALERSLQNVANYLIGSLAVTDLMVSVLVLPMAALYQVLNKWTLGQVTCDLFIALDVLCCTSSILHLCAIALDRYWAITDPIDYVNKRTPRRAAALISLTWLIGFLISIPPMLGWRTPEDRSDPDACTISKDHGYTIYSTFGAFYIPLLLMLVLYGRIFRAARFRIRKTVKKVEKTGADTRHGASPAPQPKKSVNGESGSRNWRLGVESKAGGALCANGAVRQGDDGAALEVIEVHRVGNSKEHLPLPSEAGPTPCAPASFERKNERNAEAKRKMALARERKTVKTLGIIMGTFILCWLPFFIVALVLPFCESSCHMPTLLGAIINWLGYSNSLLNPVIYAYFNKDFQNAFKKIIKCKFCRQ

[22] = target: T3, Alpha-1A adrenergic receptor (Homo sapiens) (UniProt P35348); assay: ALPHA1AH_ANTAG Cerep selectivity data (BI); details: filed as antagonist, Compound concentration 10.0 uM
T3 sequence (whole entry): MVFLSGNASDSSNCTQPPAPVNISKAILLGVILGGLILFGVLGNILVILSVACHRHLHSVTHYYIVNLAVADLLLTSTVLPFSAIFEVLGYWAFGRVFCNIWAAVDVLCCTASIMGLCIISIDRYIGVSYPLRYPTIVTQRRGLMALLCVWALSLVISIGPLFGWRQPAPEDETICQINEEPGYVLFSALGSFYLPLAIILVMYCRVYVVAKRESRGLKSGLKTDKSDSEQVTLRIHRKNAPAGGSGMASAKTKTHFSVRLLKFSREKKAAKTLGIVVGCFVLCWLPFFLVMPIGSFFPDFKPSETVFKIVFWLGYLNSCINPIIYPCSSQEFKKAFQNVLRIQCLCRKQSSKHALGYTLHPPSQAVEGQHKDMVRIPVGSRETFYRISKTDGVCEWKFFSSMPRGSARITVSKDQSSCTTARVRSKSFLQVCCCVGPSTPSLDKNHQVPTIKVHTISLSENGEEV

Autotaxin = Autotaxin (Homo sapiens, UniProt Q13822); assay: Biochemical assay: measurement of LPA (human)

SMILES: O=C(NC[C@@H]1[C@H]2CN(C(=O)OCc3cc(C(F)(F)F)cc(C(F)(F)F)c3)C[C@@H]12)c1ccc2[nH]nnc2c1 [BI 2545]
- activity at 10 µM [1]: 70% (not active)
- residual activity [2]: 77%
- residual activity [3]: 68%
- residual activity [4]: 136%
- residual activity [5]: 66%
- activity at 10 µM [6]: 20% (active)
- inhibition [7]: -2.87%
- residual activity [8]: 95%
- Ki [9]: 8.68 µM
- residual activity [10]: 76%
- residual activity [11]: 103%
- residual activity [12]: 82%
- residual activity [13]: 101%
- residual activity [14]: 82%
- residual activity [15]: 51%
- residual activity [16]: 92%
- residual activity [17]: 100%
- residual activity [18]: 107%
- residual activity [19]: 39%
- residual activity [20]: 97%
- residual activity [21]: 83%
- residual activity [22]: 87%

SMILES: Cc1nccc(COC(=O)N2C[C@@H]3[C@@H](CNC(=O)c4ccc5[nH]nnc5c4)[C@@H]3C2)n1 [BI 3017]
- IC50 (Autotaxin): 8.9 µM (not active)

— ChEMBL document CHEMBL4507275, “Data for DCP probe BI-2545” (2021)
